Laboratory results taken from US7947466B2 (priority 2003, dated 2011).
Entries after “also recorded” stand apart in the source; their conditions may differ. Read-outs that look alike come from different tables or passages of the source.

Legend:
Aplysia AChBP [1] = molecular target: T1, Aplysia AChBP (Aplysia californica, UniProt Q8WSF8); assay: biochemical; format: binding
Aplysia AChBP [2] = molecular target: T1, Aplysia AChBP; assay: biochemical; format: binding; remark: listed apart in the source
Lymnaea AChBP [3] = molecular target: T2, Lymnaea AChBP (Lymnaea stagnalis, UniProt P58154); assay: biochemical; format: binding
Target sequence in this assay (P58154 20-229 limits assumed): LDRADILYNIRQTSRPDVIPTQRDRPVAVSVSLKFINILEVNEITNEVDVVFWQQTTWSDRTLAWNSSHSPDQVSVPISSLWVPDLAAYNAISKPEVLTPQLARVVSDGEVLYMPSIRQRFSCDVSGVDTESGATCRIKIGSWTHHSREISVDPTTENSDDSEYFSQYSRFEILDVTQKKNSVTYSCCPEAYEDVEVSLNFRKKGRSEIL

Lymnaea AChBP [4] = molecular target: T2, Lymnaea AChBP; assay: biochemical; format: binding; remark: listed apart in the source
Lymnaea AChBP [5] = molecular target: T2, Lymnaea AChBP; conditions: read-out: Lymnaea Kd; cited from earlier work
Target sequence in this assay (P58154 20-229 limits assumed): as above

Lymnaea AChBP [6] = molecular target: T2, Lymnaea AChBP; format: binding
Target sequence in this assay (P58154 20-229 limits assumed): as above

T1 sequence (Q8WSF8 18-236): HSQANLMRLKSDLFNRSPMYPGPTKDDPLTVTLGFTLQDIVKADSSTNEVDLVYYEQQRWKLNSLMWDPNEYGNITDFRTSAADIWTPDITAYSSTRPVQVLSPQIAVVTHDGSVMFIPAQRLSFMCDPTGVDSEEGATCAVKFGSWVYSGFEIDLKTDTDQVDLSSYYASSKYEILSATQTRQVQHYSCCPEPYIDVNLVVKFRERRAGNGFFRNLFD

Row | Molecule | Kd Ratio L/A (Aplysia AChBP [1]) | k1 Aplysia (Aplysia AChBP [1]) | k−1 Aplysia (Aplysia AChBP [1]) | Kd (Aplysia AChBP [2]) | change of tryptophan fluorescence on binding, A-AChBP (Aplysia AChBP [2]) | Kd (Lymnaea AChBP [4]) | k1 (Lymnaea AChBP [4]) | k1 Lymnaea (Lymnaea AChBP [4]) | k−1 (Lymnaea AChBP [4]) | k−1 Lymnaea (Lymnaea AChBP [4]) | Kd (Lymnaea AChBP [4]; read-out: Kd) | further results
1 | CC[N+](CC)(CC)CCOc1cccc(OCC[N+](CC)(CC)CC)c1OCC[N+](CC)(CC)CC [Gallamine] | 1.2 | 2.5e+08 M⁻¹ s⁻¹ | 65 s⁻¹ | 120 nM | enhanced fluorescence emission | 140 nM | 2.5 ± 0.14 ×10^8 M^−1 s^−1 | 2.5e+08 M⁻¹ s⁻¹ | 36 ± 6.5 s⁻¹ | 36 s⁻¹ | – | change of tryptophan fluorescence on binding, L-AChBP (Lymnaea AChBP [3]): enhanced tryptophan fluorescence; change of tryptophan fluorescence on binding, Lymnaea AChBP (Example 1) (Lymnaea AChBP [4]): enhancement of the tryptophan fluorescence; also recorded: increase in fluorescence
2 | O=C1C[C@@H]2OCC=C3CN4CC[C@]56c7ccccc7N1[C@H]5[C@H]2[C@H]3C[C@H]46 [Strychnine] | – | – | – | – | – | 23 nM | – | – | – | – | – | Kd (Aplysia AChBP [1]): 15 nM
3 | 5-Dimethylaminonaphthylsulfonamidohexyltrimethylammonium [Dansyl-C6-choline] | 0.069 | – | – | – | – | – | 1.3e+08 M⁻¹ s⁻¹ | – | 7.6 s⁻¹ | – | 58 nM | Kd (Aplysia AChBP [2]; read-out: Aplysia Kd): 1600 nM; Kd (Lymnaea AChBP [5]): 110 nM
4 | CCN1C[C@]2(COC(=O)c3ccccc3N3C(=O)C[C@H](C)C3=O)CC[C@H](OC)[C@@]34[C@@H]5C[C@H]6[C@H](OC)[C@@H]5[C@](O)(C[C@@H]6OC)[C@@](O)([C@@H](OC)[C@H]23)[C@@H]14 [Methyllycaconitine] | 0.14 | 4.4e+07 M⁻¹ s⁻¹ | 0.12 s⁻¹ | – | – | – | – | 1.3e+07 M⁻¹ s⁻¹ | – | 0.005 s⁻¹ | – | Kd (Aplysia AChBP [1]): 2.8 nM; Kd (Lymnaea AChBP [5]): 0.41 nM
5 | CN1CCCC1c1cccnc1 (single isomer, unassigned; (-)) [(−)-Nicotine] | – | 2.3e+08 M⁻¹ s⁻¹ | 49 s⁻¹ | 245 nM | markedly quenched fluorescence | – | 1.5e+08 M⁻¹ s⁻¹ | 1.5e+08 M⁻¹ s⁻¹ | 5.7 s⁻¹ | 5.7 s⁻¹ | – | change of tryptophan fluorescence on binding, L-AChBP (Lymnaea AChBP [3]): markedly quenched fluorescence
6 | Clc1ccc(C2CC3CCC2N3)cn1 (stereo not shown) [Epibatidine] | 0.011 | 2.5e+08 M⁻¹ s⁻¹ | 3.4 s⁻¹ | – | markedly quenched fluorescence | 0.16 nM | 1.7 ± 0.26 ×10^8 M^−1 s^−1 | 1.7e+08 M⁻¹ s⁻¹ | 0.027 ± 0.037 s⁻¹ | 0.027 s⁻¹ | – | Kd (Aplysia AChBP [1]): 14 nM; quenching of the intrinsic tryptophan fluorescence (Lymnaea AChBP [6]): about 50%; change of tryptophan fluorescence on binding, L-AChBP (Lymnaea AChBP [3]): markedly quenched fluorescence
7 | α-Bungarotoxin | 0.0071 | 1e+06 M⁻¹ s⁻¹ | 0.32 s⁻¹ | – | – | – | 0.0097 ± 0.002 ×10^8 M^−1 s^−1 | 900000 M⁻¹ s⁻¹ | 0.0017 ± 0.0003 s⁻¹ | 0.001 s⁻¹ | 1.8 nM | quenching of the intrinsic tryptophan fluorescence (Lymnaea AChBP [6]): 15-20%; lower affinity for A-AChBP than for L-AChBP (Aplysia AChBP [2]): 100 fold; Kd (Aplysia AChBP [2]; read-out: Aplysia Kd): 250 nM; Kd (Lymnaea AChBP [5]): 1.8 nM; rate of association slower than for epibatidine (Lymnaea AChBP [4]): ~200 fold; unimolecular step k2 (slow phase limiting value) (Lymnaea AChBP [4]): 0.34 s⁻¹
8 | 5-Dimethylaminonaphthylsulfonamidoethyltrimethylammonium [Dansyl-C2-choline] | – | – | – | – | – | – | 2.1e+08 M⁻¹ s⁻¹ | – | 2.9 s⁻¹ | – | 14 nM | –
9 | C[N+](C)(C)CCOC(N)=O [Carbachol] | 0.023 | – | – | 240000 nM | enhanced fluorescence emission | – | – | – | – | – | – | Kd (Lymnaea AChBP [3]): 5600 nM
10 | CC(=O)OCC[N+](C)(C)C [Acetylcholine] | – | – | – | 33000 nM | – | – | – | – | – | – | – | –
11 | C[N+](C)(C)CCCCCCCCCC[N+](C)(C)C [Decamethonium] | – | – | – | – | – | 380 nM | 3.2 ± 0.17 ×10^8 M^−1 s^−1 | – | 120 ± 17 s⁻¹ | – | – | –
12 | COc1cc2c3cc1Oc1cc(ccc1O)C[C@@H]1c4c(cc(OC)c(O)c4Oc4ccc(cc4)C[C@@H]3N(C)CC2)CC[N+]1(C)C [d-Tubocurarine] | – | – | – | – | – | – | 2e+08 M⁻¹ s⁻¹ | – | 30 s⁻¹ | – | 150 nM | –
13 | α-Cobratoxin: α-neurotoxin, peptide toxin from elapid venom (protein) IRCFITPDITSKDCPNGHVCYTKTWCDAFCSIRGKRVDLGCAATCPTVKTGVDIQCCSTDNCNPFPTRKRP | – | – | – | – | – | – | 3.3e+06 M⁻¹ s⁻¹ | – | 0.011 s⁻¹ | – | 3.2 nM | –
